SMILES strings stand for the structures.

Experiment [1] deals with T1, N-terminal His6-tagged recombinant human KDR, residues 790-end (Homo sapiens, UniProt P35968).
T1 construct: recombinant human KDR, residues 790-end; His6 (N); purchased Upstate USA Inc, Charlottesville, Va
Put plainly: KDR kinase inhibition assay (33P-ATP filter assay). The experiment is classed as biochemical. The following applies: 40 minutes, room temperature; less than or equal to 100 nM. As to the method: Compounds were assayed for KDR kinase inhibitory activity using N-terminal His6-tagged recombinant human KDR, residues 790-end (Upstate USA Inc, 706 Forest Street, Charlottesville, Va.). Serial dilutions of compound were assayed in a final reaction volume of 25 μL by incubating a solution of the above KDR kinase (5-10 mU), 8 mM MOPS (3-(N-morpholino)propanesulfonic acid) pH 7.0, 0.2 mM EDTA (ethylenediamine tetracetic acid), 0.33 mg/mL myelin basic protein (Upstate USA Inc, 706 Forest Street, Charlottesville, Va.), and 10 mM magnesium acetate and [γ-^33P-ATP] (specific activity of about 500 cpm/pmol, concentration as required). The reaction was initiated by the addition of the magnesium acetate and [γ-^33P-ATP] mixture. After incubation for 40 minutes at room temperature, the reaction was stopped by the addition of 5 μL of a 3% phosphoric acid solution. A 10 μL aliquote of the reaction was then spotted onto a P30 filtermat (PerkinElmer, Wellesley, Mass.) and washed three times for five minutes in 75 mM phosphoric acid and once in methanol prior to drying and scintillation counting. Inhibition of KDR activity was determined by comparison to assays that contained no inhibitor.

The next experiment concerns HCT-116 cell growth. Put plainly: Whole cell cytotoxicity assay: Sulforhodamine B. The following applies: Homo sapiens, HCT116, 96 hours, SRB staining, less than or equal to 100 nM. It is filed as cell-based. The method, then: Human tumor-derived cell lines, HCT116 or MCF7 (ATCC) were plated in a 96 well plate in DMEM containing 10% fetal bovine serum and 2 mM L-glutamine at a density of 500 HCT116 cells or 1,000 MCF7 cells per well and incubated at 37° C., 5% CO2, for 24 hours prior to the addition of experimental compounds. Compounds were added using the dilution series indicated to duplicate plates and the cells were incubated in media plus compound for 96 hours. An additional plate was fixed in 10% TCA at the time of the addition of compound to provide a measurement of the cell population at time zero, the time of drug addition. […] The absorbance was read at 570 nm. Percentage growth was calculated using the absorbance readings from the time zero plate (Tz) and the dilution series plate […] which included a column of cells grown in media without compound as a control (C) using the formulas: […]
Three dose response parameters were calculated for each experimental agent. […] The drug concentration resulting in total growth inhibition (TGI) was calculated from Ti=Tz. […] Values are calculated for each of these three parameters if the level of activity was reached; however, if the effect was not reached or was exceeded, the value for that parameter is expressed as greater or less than the maximum or minimum concentration tested.
In general terms: Sulforhodamine B stains cellular protein and so reports cell mass.

T1 sequence (P35968 790-1356 limits assumed): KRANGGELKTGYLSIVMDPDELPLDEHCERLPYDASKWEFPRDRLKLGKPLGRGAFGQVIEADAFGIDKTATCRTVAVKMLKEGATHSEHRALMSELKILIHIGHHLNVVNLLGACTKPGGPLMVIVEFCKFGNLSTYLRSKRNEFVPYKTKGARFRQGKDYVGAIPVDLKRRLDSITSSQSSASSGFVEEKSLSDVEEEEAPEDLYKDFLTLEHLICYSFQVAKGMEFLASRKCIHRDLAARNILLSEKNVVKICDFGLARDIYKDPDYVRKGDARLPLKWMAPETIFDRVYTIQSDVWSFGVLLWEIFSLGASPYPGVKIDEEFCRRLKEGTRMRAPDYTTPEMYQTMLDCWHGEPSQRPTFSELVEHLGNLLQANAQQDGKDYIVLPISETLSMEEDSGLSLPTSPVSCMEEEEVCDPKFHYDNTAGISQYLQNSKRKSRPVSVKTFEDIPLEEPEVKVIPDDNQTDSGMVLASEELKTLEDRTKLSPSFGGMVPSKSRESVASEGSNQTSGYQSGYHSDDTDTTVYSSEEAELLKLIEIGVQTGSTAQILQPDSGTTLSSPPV

As a reminder, the IC50 is the concentration that inhibits the measured activity by half. Take `Cc1cc(Nc2cc(N3CCC(N4CCCCC4)CC3)nc(/C=C/c3ccccc3)n2)n[nH]1` [Compound 5, (E)-6-(1,4′-bipiperidin-1′-yl)-N-(5-methyl-1H-pyrazol-3-yl)-2-styrylpyrimidin-4-amine]: the 50% inhibitory concentration (IC50) (in experiment [1]; in the experiment with HCT-116 cell growth) was at most 100 nM throughout.

For `Cc1cc(Nc2cc(N3CCN(c4ccncc4)CC3)nc(/C=C/c3ccccc3)n2)n[nH]1` [Compound 22, (E)-N-(5-methyl-1H-pyrazol-3-yl)-6-(4-(pyridin-4-yl)piperazin-1-yl)-2-styrylpyrimidin-4-amine], the IC50 (in experiment [1]; in the experiment on HCT-116 cell growth) was at most 100 nM throughout.
